Data set [1] can be described thus: thermal stability of T-20 fragments (water-saturated or dry) at elevated temperatures, purity change by HPLC. The class given is physicochemical. The method, then: A series of experiments were conducted at to characterize the thermal stability of the intermediate T-20 fragments. T-20 fragments were saturated with water, filtered and then placed in enclosed containers and exposed to elevated temperatures. At several time points samples were collected and analyzed by HPLC methods to access the purity changes. Stability of the dry T-20 fragments was also characterized by thermogravimetric analysis (TGA).

Structures are written as SMILES. Residues, ends and D or L forms follow the SMILES beside them. *: point of attachment. NHTrityl = c1ccc(C(N*)(c2ccccc2)c2ccccc2)cc1; Fmoc = O=C(OCC1c2ccccc2-c2ccccc21)*; Boc = CC(C)(C)OC(=O)*; OtBu = CC(C)(C)O*; tBu = CC(C)(C)*

The values that follow come from EP1071442B9, “METHODS AND COMPOSITIONS FOR PEPTIDE SYNTHESIS (T-20)” (priority 1998, dated 1999).

In turn, `CC(C)C[C@H](NC(=O)[C@H](COC(C)(C)C)NC(=O)[C@H](C)NC(=O)[C@H](Cc1cn(C(=O)OC(C)(C)C)c2ccccc12)NC(=O)[C@H](CCCCNC(=O)OC(C)(C)C)NC(=O)[C@H](CC(=O)OC(C)(C)C)NC(=O)OCC1c2ccccc2-c2ccccc21)C(=O)N[C@@H](Cc1cn(C(=O)OC(C)(C)C)c2ccccc12)C(=O)N[C@@H](CC(=O)NC(c1ccccc1)(c1ccccc1)c1ccccc1)C(=O)N[C@@H](Cc1cn(C(=O)OC(C)(C)C)c2ccccc12)C(=O)N[C@@H](Cc1ccccc1)C(N)=O` [F(27-36)-NH2] (Fmoc-D(OtBu)K(Boc)W(Boc)AS(tBu)LW(Boc)D(NHTrityl)W(Boc)F-NH2) had a degradation in data set [1] (after 24 hours at 80 °C) of 1.4%. In addition, the stability to drying result in data set [1] (drying at 40 °C) was “stable”. `CC(C)C[C@H](NC(=O)[C@H](CCC(=O)OC(C)(C)C)NC(=O)[C@H](CC(C)C)NC(=O)[C@H](CC(C)C)NC(=O)[C@H](CCC(=O)OC(C)(C)C)NC(=O)[C@H](CCC(=O)NC(c1ccccc1)(c1ccccc1)c1ccccc1)NC(=O)[C@H](CCC(=O)OC(C)(C)C)NC(=O)[C@H](CC(=O)NC(c1ccccc1)(c1ccccc1)c1ccccc1)NC(=O)[C@H](CCCCNC(=O)OC(C)(C)C)NC(=O)[C@H](CCC(=O)OC(C)(C)C)NC(=O)OCC1c2ccccc2-c2ccccc21)C(=O)O` [F(17-26)-OH] (Fmoc-E(OtBu)K(Boc)D(NHTrityl)E(OtBu)E(NHTrityl)E(OtBu)LLE(OtBu)L-OH): the “stability in 1% TFA/DCM” value is 1 %/day.
